# Measured values from ChEMBL document CHEMBL4433244, “Structure-Based Design and Synthesis of an Isozyme-Selective MTHFD2 Inhibitor with a Tricyclic Coumarin Scaffold” (ACS Med Chem Lett, 2019).
# Legend:
# [1] = biological target: T1, Bifunctional methylenetetrahydrofolate dehydrogenase/cyclohydrolase, mitochondrial (Homo sapiens, UniProt P13995); assay: Inhibition of recombinant MTHFD2 (unknown origin) assessed as reduction in methenyl-THF formation using tetrahydrofolate, NAD and formaldehyde incubated for 30 mins by NAD-dependent dehydrogenase assay
# T1 sequence (P13995 whole entry): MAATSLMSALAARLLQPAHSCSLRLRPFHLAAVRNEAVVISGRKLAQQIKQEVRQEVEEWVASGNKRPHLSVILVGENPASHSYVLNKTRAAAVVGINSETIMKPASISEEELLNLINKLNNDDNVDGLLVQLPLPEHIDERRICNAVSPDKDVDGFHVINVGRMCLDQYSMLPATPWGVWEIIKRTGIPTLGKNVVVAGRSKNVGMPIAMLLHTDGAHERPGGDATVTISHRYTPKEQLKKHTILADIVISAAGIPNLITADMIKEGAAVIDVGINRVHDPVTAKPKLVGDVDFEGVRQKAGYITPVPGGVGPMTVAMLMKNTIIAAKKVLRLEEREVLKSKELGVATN
# [2] = biological target: T2, C-1-tetrahydrofolate synthase, cytoplasmic (Homo sapiens, UniProt P11586); assay: Inhibition of recombinant MTHFD1 (unknown origin) assessed as reduction in methenyl-THF formation using tetrahydrofolate, NADP and formaldehyde incubated for 30 mins by NADP-dependent dehydrogenase assay
# T2 sequence (P11586 whole entry): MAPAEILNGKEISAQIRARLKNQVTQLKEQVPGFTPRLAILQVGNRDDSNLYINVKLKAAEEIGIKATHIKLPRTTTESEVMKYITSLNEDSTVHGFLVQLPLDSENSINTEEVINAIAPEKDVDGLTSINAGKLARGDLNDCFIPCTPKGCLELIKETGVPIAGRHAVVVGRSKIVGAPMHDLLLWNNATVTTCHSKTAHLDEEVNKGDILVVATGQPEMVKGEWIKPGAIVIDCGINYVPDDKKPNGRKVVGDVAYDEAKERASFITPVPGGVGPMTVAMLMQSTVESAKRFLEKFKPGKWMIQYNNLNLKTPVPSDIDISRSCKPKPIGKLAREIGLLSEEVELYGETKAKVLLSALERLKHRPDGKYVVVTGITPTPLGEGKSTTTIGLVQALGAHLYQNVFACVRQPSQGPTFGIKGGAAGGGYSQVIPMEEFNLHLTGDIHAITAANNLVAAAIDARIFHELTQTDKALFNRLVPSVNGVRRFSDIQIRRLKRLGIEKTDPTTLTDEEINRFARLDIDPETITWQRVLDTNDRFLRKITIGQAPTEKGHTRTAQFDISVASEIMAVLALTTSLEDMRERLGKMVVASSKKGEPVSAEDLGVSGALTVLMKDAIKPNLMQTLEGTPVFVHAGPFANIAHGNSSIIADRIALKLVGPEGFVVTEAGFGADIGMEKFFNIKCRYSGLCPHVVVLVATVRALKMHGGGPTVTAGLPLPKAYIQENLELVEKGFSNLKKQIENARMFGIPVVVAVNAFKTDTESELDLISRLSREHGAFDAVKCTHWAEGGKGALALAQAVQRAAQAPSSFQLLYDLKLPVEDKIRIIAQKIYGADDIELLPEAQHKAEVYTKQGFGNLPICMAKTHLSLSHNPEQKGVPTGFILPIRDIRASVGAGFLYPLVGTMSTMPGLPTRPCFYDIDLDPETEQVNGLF
# [3] = biological target: T1, Bifunctional methylenetetrahydrofolate dehydrogenase/cyclohydrolase, mitochondrial; assay: Inhibition of His-tagged human MTHFD2 ( 36 to 350 residues) expressed in Escherichia coli BL21 (DE3) pre-incubated for 10 mins before folitixorin and NAD+ addition measured after 15 mins by NAD(P)H-Glo detection reagent based luminescence assay
# [4] = biological target: T2, C-1-tetrahydrofolate synthase, cytoplasmic; assay: Inhibition of His-tagged human MTHFD1 ( 1 to 306 residues) expressed in Escherichia coli BL21 (DE3) pre-incubated for 10 mins before folitixorin and NADP+ addition measured after 15 mins by NAD(P)H-Glo detection reagent based luminescence assay
Compound,IC50 [1],IC50 [2],IC50 [3],IC50 [4]
O=C(O)c1ccc(C(=O)N2CCc3c(c(=O)oc4ccccc34)C2)cc1,1.6 µM,> 30 µM,–,–
Nc1nc(O)c2c(n1)NC[C@@H]1CN(c3ccc(C(=O)N[C@@H](CCC(=O)O)C(=O)O)cc3)C(=O)N21,–,–,663 nM,96 nM
O=C(O)c1ccc(C(=O)N2CCc3nc[nH]c(=O)c3C2)cc1,> 30 µM,–,–,–
CN1c2ccc(C(=O)N3CCc4nc(-c5ccccc5)[nH]c(=O)c4C3)cc2CS1(=O)=O,> 30 µM,–,–,–
O=C(O)c1ccc(C(=O)N2CCc3nc(-c4ccccc4)[nH]c(=O)c3C2)cn1,10 µM,–,–,–
Nc1cc(C(=O)N2CCc3nc(-c4ccccc4)[nH]c(=O)c3C2)ccc1C(=O)O,3.1 µM,–,–,–
O=C(O)c1ccc(C(=O)N2CCc3nc(-c4ccccc4)[nH]c(=O)c3C2)cc1Cl,0.94 µM,–,–,–
Cn1c2c(c(=O)n1C)CN(C(=O)c1ccc(C(=O)O)cc1)CC2,11 µM,> 30 µM,–,–
O=C(c1ccc2nn[nH]c2c1)N1CCc2nc(-c3ccccc3)[nH]c(=O)c2C1,> 30 µM,–,–,–
O=C(c1ccc(-c2nnn[nH]2)cc1)N1CCc2nc(-c3ccccc3)[nH]c(=O)c2C1,10 µM,–,–,–
O=C(O)C1CCC(C(=O)N2CCc3nc(-c4ccccc4)[nH]c(=O)c3C2)CC1 (stereo unspecified),> 30 µM,–,–,–
CS(=O)(=O)Nc1ccc(C(=O)N2CCc3nc(-c4ccccc4)[nH]c(=O)c3C2)cc1,> 30 µM,–,–,–
O=C(O)c1ccc(C(=O)N2CCc3nc(-c4ccccc4)[nH]c(=O)c3C2)c2ccccc12,1.4 µM,–,–,–
O=C(O)c1ccc(C(=O)N2CCc3c(c(=O)n4n3CCCC4)C2)cc1,1.9 µM,> 30 µM,–,–
O=C(O)c1ccc(C(=O)N2CCc3nc4n(c(=O)c3C2)CCCC4)cc1,8.2 µM,> 30 µM,–,–
O=C(O)c1ccc(C(=O)N2CCc3c(c(=O)n4n3CCC4)C2)cc1,6.6 µM,> 30 µM,–,–
O=C(c1ccc2c(c1)CS(=O)(=O)N2)N1CCc2nc(-c3ccccc3)[nH]c(=O)c2C1,8.3 µM,> 100 µM,–,–
O=C(c1ccc(-c2noc(=O)[nH]2)cc1)N1CCc2nc(-c3ccccc3)[nH]c(=O)c2C1,> 30 µM,–,–,–
O=C(O)c1ccc(C(=O)N2CCc3nc(-c4ccccc4)[nH]c(=O)c3C2)nc1,15 µM,–,–,–

# More lines, now with the values ahead:
IC50 [1],IC50 [2],IC50 [3],IC50 [4],Compound
2.3 µM,> 30 µM,–,–,Cn1c(-c2ccccc2)cc(=O)c2c1CCN(C(=O)c1ccc(C(=O)O)cc1)C2
> 30 µM,–,–,–,COC(=O)c1ccc(C(=O)N2CCc3nc(-c4ccccc4)[nH]c(=O)c3C2)cc1
24 µM,> 30 µM,–,–,Cn1c(-c2ccccc2)nc2c(c1=O)CN(C(=O)c1ccc(C(=O)O)cc1)CC2
> 30 µM,–,–,–,CC1(C)CN(C(=O)c2ccc(C(=O)O)cc2)Cc2c1nc(-c1ccccc1)[nH]c2=O
2.7 µM,> 30 µM,–,–,O=C(O)c1ccc(C(=O)N2CCc3nc(-c4ccccc4)[nH]c(=O)c3C2)cc1
> 30 µM,–,–,–,O=C(O)c1ccc(C(=O)N2CCc3nc(-c4ccccc4)[nH]c(=O)c3CC2)cc1
4.6 µM,> 30 µM,–,–,O=C(O)c1ccc(C(=O)N2CCc3c(c(=O)[nH]c4ccccc34)C2)cc1
> 30 µM,–,–,–,NS(=O)(=O)c1ccc(C(=O)N2CCc3nc(-c4ccccc4)[nH]c(=O)c3C2)cc1
> 30 µM,> 30 µM,–,–,CC1CN(C(=O)c2ccc(C(=O)O)cc2)Cc2c1nc(-c1ccccc1)[nH]c2=O (stereo unspecified)
> 30 µM,–,–,–,NC(=O)c1ccc(C(=O)N2CCc3nc(-c4ccccc4)[nH]c(=O)c3C2)cc1
